Results as given in ChEMBL document CHEMBL1133401 (Bioorg Med Chem Lett, 2000).
In brackets after ≈: the same amount, converted by molar mass.

What was measured:
Adenosine receptor A1 = biological target: T1, Adenosine receptor A1 (Cavia porcellus, UniProt P47745); test: Ex vivo inhibition of guinea pig ileum twitch via Adenosine A1 receptor.; format: tissue-based
T1 sequence (P47745 whole entry): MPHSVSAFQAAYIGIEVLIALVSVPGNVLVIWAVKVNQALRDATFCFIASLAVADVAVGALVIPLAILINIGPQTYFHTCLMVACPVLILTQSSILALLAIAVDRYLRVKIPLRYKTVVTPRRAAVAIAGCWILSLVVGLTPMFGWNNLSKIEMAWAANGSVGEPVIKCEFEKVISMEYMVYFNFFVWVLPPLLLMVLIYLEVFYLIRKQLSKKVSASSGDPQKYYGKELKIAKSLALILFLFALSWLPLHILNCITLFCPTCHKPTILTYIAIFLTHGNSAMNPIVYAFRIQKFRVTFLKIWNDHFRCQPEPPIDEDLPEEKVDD

[1] = The compound was evaluated for the aqueous solubility at pH value of 2.6.; format: physicochemical; settings: pH 2.6
Adenosine receptor A2a [2] = biological target: T2, Adenosine receptor A2a (Rattus norvegicus, UniProt P30543); test: (§1) Agonistic activity against Adenosine A2A receptor on rat striatal membranes
Adenosine receptor A2a [3] = biological target: T2, Adenosine receptor A2a; test: as §1; format: functional, Striatum, Membrane

T2 sequence (P30543 whole entry): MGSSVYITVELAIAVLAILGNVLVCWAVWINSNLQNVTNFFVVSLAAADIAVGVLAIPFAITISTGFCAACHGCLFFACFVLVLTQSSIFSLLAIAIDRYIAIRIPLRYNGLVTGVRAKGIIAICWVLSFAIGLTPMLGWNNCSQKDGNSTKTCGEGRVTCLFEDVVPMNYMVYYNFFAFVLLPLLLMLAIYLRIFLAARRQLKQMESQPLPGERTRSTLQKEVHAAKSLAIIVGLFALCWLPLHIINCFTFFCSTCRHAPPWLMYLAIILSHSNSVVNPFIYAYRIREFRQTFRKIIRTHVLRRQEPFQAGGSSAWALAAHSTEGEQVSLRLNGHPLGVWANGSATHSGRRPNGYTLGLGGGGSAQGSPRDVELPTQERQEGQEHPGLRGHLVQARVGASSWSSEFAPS

Structure (SMILES) | ECR (Adenosine receptor A1) | also measured
CCNC(=O)[C@H]1O[C@@H](n2cnc3c(NCC(c4ccccc4)c4ccccc4)nc(N[C@H]4CC[C@H](N)CC4)nc32)[C@H](O)[C@@H]1O.O=C(O)C(F)(F)F | 369 | solubility [1]: 1570 µg/mL
CCNC(=O)[C@H]1O[C@@H](n2cnc3c(NCC(c4ccccc4)c4ccccc4)nc(NCCc4c[nH]cn4)nc32)[C@H](O)[C@@H]1O | 672 | solubility [1]: ≥ 1820 µg/mL
OC[C@H]1O[C@@H](n2cnc3c(NCCc4cccc(Cl)c4)nc(NC4CCCC4)nc32)[C@H](O)[C@@H]1O | > 1000 | –
Nc1nc(N[C@H]2CCC[C@@H]2O)nc2c1ncn2[C@@H]1O[C@H](CO)[C@@H](O)[C@H]1O | 84 | –
OC[C@H]1O[C@@H](n2cnc3c(NCc4cccc5ccccc45)ncnc32)[C@H](O)[C@@H]1O | – | Ki (Adenosine receptor A2a [2]): 0.0094 µM
OC[C@H]1O[C@@H](n2cnc3c(NCC(c4ccccc4)c4ccccc4)nc(NC4CCCC4)nc32)[C@H](O)[C@@H]1O | > 612 | –
CCNC(=O)[C@H]1O[C@@H](n2cnc3c(N)nc(NC4CCCC4)nc32)[C@H](O)[C@@H]1O | 80 | –
OC[C@H]1O[C@@H](n2cnc3c(NCc4cccc5ccccc45)nc(NC4CCCCC4)nc32)[C@H](O)[C@@H]1O | – | Ki (Adenosine receptor A2a [3]): 10.3 µM
Nc1nc(N[C@@H]2CCC[C@H]2O)nc2c1ncn2[C@@H]1O[C@H](CO)[C@@H](O)[C@H]1O | 1470 | –
OC[C@H]1O[C@@H](n2cnc3c(NC4CCCC4)nc(Cl)nc32)[C@H](O)[C@@H]1O | 1 | –
CCNC(=O)[C@H]1O[C@@H](n2cnc3c(NCC(c4ccccc4)c4ccccc4)nc(NCCN4CCCCC4)nc32)[C@H](O)[C@@H]1O.O=C(O)C(F)(F)F | 263 | solubility [1]: ≥ 1870 µg/mL
OC[C@H]1O[C@@H](n2cnc3c(N[C@@H]4CCC[C@@H]4O)nc(Cl)nc32)[C@H](O)[C@@H]1O | 2 | –
CCNC(=O)[C@H]1O[C@@H](n2cnc3c(NCC(c4ccccc4)c4ccccc4)nc(N[C@@H]4CCC[C@H]4O)nc32)[C@H](O)[C@@H]1O | 390 | –
CCNC(=O)[C@H]1O[C@@H](n2cnc3c(N)nc(N[C@@H]4CCC[C@H]4O)nc32)[C@H](O)[C@@H]1O | 260 | –
CCNC(=O)[C@H]1O[C@@H](n2cnc3c(NCC(c4ccccc4)c4ccccc4)nc(NC4CCCC4)nc32)[C@H](O)[C@@H]1O | > 5000 | solubility [1]: 24 µg/mL (≈ 42 µM)
Nc1nc(NC2CCCC2)nc2c1ncn2[C@@H]1O[C@H](CO)[C@@H](O)[C@H]1O | 549 | –
